Laboratory results published in the supplement of paper PMC11208160.

Test: recombinant UMI read abundance after kanamycin selection (control-corrected) (log10(CPM+1)); higher = more efficient recombination; extreme values may be limits of the assay; sequences stand for … in AGTGCAGAGAAAATCGGCCAGTTTTCTCTGCCTGCAGTCCGCATGCCGTGGGACCCCTTGGGTTCTAACCTGTTGCCTAGATTTATGCAGCGGACTGCCTTTCTCCCAAAGTGATAAACCGG…AGGTTGGTTTCACT; site = the 11-nt donor
Procedure, shortened: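 In a pooled Escherichia coli screen for the IS621 bridge recombinase, donor and donor-binding-loop pairs were each placed with a 12-nt UMI on a plasmid bearing a promoterless kanamycin gene. This library was co-electroporated with a target plasmid encoding a fixed target and T7-inducible recombinase, and cells were plated either on IPTG (0.07 mM) plus kanamycin or without selection, in two replicates each. Recombinant UMIs were PCR-amplified across the donor–target junction and sequenced, and counts were converted to CPM, averaged over replicates, scaled by control-derived factors and reported as log10(CPM+1).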

Row | Sequence | recombinant UMI read abundance (log10)
1 | CGCGGACCATGGACCGGTTTTCCCGGTAATCCGTATTTGGG (site CGGGGACCTCC) | 0.0209
2 | CGCGGACCATGGACCGGTTTTCCCGGTAATCCGTATTTGGG (site CGTGGACCTCC) | 0.0246
3 | CGCGGCACATGGACCGGTTTTCCCGGTAATCCGTATTTGTA (site CGCGGCACTTA) | 1.66
4 | CGCGTCTCATGGACCGGTTTTCCCGGTAATCCGTATTTGTA (site CGCGTCTCTTA) | 3.26
5 | CGCTAATCATGGACCGGTTTTCCCGGTAATCCGTATTTGGG (site CGCTAATCTCC) | 1.5
6 | CGCTACTCATGGACCGGTTTTCCCGGTAATCCGTATTTGCT (site CGCTACTCTAG) | 2.85
7 | CGCTAGCCATGGACCGGTTTTCCCGGTAATCCGTATTTGCC (site CACTAGCCTGG) | 0.0111
8 | CGCTAGCCATGGACCGGTTTTCCCGGTAATCCGTATTTGCC (site CCCTAGCCTGG) | 0
9 | CGCTAGCCATGGACCGGTTTTCCCGGTAATCCGTATTTGCC (site CGCTAGCCTGG) | 0.816
10 | CGCTAGCCATGGACCGGTTTTCCCGGTAATCCGTATTTGCC (site CTCTAGCCTGG) | 1.8
11 | CGCTCAACATGGACCGGTTTTCCCGGTAATCCGTATTTGCT (site CGATCATCTAG) | 0
12 | CGCTCAACATGGACCGGTTTTCCCGGTAATCCGTATTTGCT (site CGCTCAACTAG) | 0
13 | CGCTCAGCATGGACCGGTTTTCCCGGTAATCCGTATTTGGG (site AGCTCAGCTCC) | 0
14 | CGCTCAGCATGGACCGGTTTTCCCGGTAATCCGTATTTGGG (site CGCTCAGCTCC) | 0.0677
15 | CGCTCAGCATGGACCGGTTTTCCCGGTAATCCGTATTTGGG (site GGCTCAGCTCC) | 0
16 | CGCTCAGCATGGACCGGTTTTCCCGGTAATCCGTATTTGGG (site TGCTCAGCTCC) | 0.00882
17 | CGCTCCGCATGGACCGGTTTTCCCGGTAATCCGTATTTGCA (site CGCTCCGCTTG) | 1.79
18 | CGCTCCTCATGGACCGGTTTTCCCGGTAATCCGTATTTGCA (site CGCTCCTCTTG) | 2.84
19 | CGCTGAGCATGGACCGGTTTTCCCGGTAATCCGTATTTGGT (site CGCTGAGCTAC) | 1.31

Row | Sequence | recombinant UMI read abundance (log10)
20 | CGCTGATCATGGACCGGTTTTCCCGGTAATCCGTATTTGCC (site CGCTGATCTGG) | 1.88
21 | CGCTGGACATGGACCGGTTTTCCCGGTAATCCGTATTTGAA (site CGCTGGACTTT) | 1.77
22 | CGCTGTACATGGACCGGTTTTCCCGGTAATCCGTATTTGCT (site CGCAGTACTAG) | 0
23 | CGCTGTACATGGACCGGTTTTCCCGGTAATCCGTATTTGCT (site CGCCGTACTAG) | 1.54
24 | CGCTGTACATGGACCGGTTTTCCCGGTAATCCGTATTTGCT (site CGCGGTACTAG) | 0
25 | CGCTGTACATGGACCGGTTTTCCCGGTAATCCGTATTTGCT (site CGCTGTACTAG) | 1.68
26 | CGCTTCTCATGGACCGGTTTTCCCGGTAATCCGTATTTGGG (site CACTTCTCTCC) | 0.0042
27 | CGCTTCTCATGGACCGGTTTTCCCGGTAATCCGTATTTGGG (site CCCTTCTCTCC) | 0.0589
28 | CGCTTCTCATGGACCGGTTTTCCCGGTAATCCGTATTTGGG (site CGCTTCTCTCC) | 0.00699
29 | CGCTTCTCATGGACCGGTTTTCCCGGTAATCCGTATTTGGG (site CTCTTCTCTCC) | 0.0109
30 | CGCTTGGCATGGACCGGTTTTCCCGGTAATCCGTATTTGGA (site CACTTGGCTTC) | 0.361
31 | CGCTTGGCATGGACCGGTTTTCCCGGTAATCCGTATTTGGA (site CCCTTGGCTTC) | 0
32 | CGCTTGGCATGGACCGGTTTTCCCGGTAATCCGTATTTGGA (site CGCTTGGCTTC) | 0.824
33 | CGCTTGGCATGGACCGGTTTTCCCGGTAATCCGTATTTGGA (site CTCTTGGCTTC) | 0.00767
34 | CGGAAACCATGGACCGGTTTTCCCGGTAATCCGTATTTGCT (site CGGAAACCTAG) | 0
35 | CGGAAACCATGGACCGGTTTTCCCGGTAATCCGTATTTGCT (site CGGAATCCTAA) | 0
36 | CGGAACCCATGGACCGGTTTTCCCGGTAATCCGTATTTGGT (site CGGAACCCTAC) | 1.06
37 | CGGAACCCATGGACCGGTTTTCCCGGTAATCCGTATTTGGT (site CGGAATCCTAA) | 0
38 | CGGAACCCATGGACCGGTTTTCCCGGTAATCCGTATTTGTG (site CGGAACCCTCA) | 1.13

Row | Sequence | recombinant UMI read abundance (log10)
39 | CGGAACCCATGGACCGGTTTTCCCGGTAATCCGTATTTGTG (site CGGAATCCTAA) | 0
40 | CGGAAGACATGGACCGGTTTTCCCGGTAATCCGTATTTGTG (site CGGAAGACTCA) | 2.67
41 | CGGAATCCATGGACCGGTTTTCCCGGTAATCCGTATTTGAC (site CGGAATCCTAA) | 0.003
42 | CGGAATCCATGGACCGGTTTTCCCGGTAATCCGTATTTGAC (site CGGAATCCTGT) | 1.1
43 | CGGAATCCATGGACCGGTTTTCCCGGTAATCCGTATTTGAT (site CGGAATCCTAA) | 0
44 | CGGAATCCATGGACCGGTTTTCCCGGTAATCCGTATTTGAT (site CGGAATCCTAC) | 0.0207
45 | CGGAATCCATGGACCGGTTTTCCCGGTAATCCGTATTTGAT (site CGGAATCCTAG) | 0
46 | CGGAATCCATGGACCGGTTTTCCCGGTAATCCGTATTTGAT (site CGGAATCCTAT) | 0.646
47 | CGGAATCCATGGACCGGTTTTCCCGGTAATCCGTATTTGGT (site CGGAATCCTAA) | 0
48 | CGGAATCCATGGACCGGTTTTCCCGGTAATCCGTATTTGGT (site CGGAATCCTAC) | 0.913
49 | CGGAATCCATGGACCGGTTTTCCCGGTAATCCGTATTTGGT (site CGGAATCCTAG) | 0
50 | CGGAATCCATGGACCGGTTTTCCCGGTAATCCGTATTTGGT (site CGGAATCCTAT) | 0
51 | CGGAATCCATGGACCGGTTTTCCCGGTAATCCGTATTTGTA (site CGGAATCCTAA) | 0
52 | CGGAATCCATGGACCGGTTTTCCCGGTAATCCGTATTTGTA (site CGGAATCCTCA) | 0.781
53 | CGGAATCCATGGACCGGTTTTCCCGGTAATCCGTATTTGTA (site CGGAATCCTGA) | 0
54 | CGGAATCCATGGACCGGTTTTCCCGGTAATCCGTATTTGTA (site CGGAATCCTTA) | 1.29
55 | CGGAATGCATGGACCGGTTTTCCCGGTAATCCGTATTTGGT (site CGGAATCCTAA) | 0
56 | CGGAATGCATGGACCGGTTTTCCCGGTAATCCGTATTTGGT (site CGGAATGCTAC) | 2.27
57 | CGGAATTCATGGACCGGTTTTCCCGGTAATCCGTATTTGTT (site CGGAATACTAA) | 0.00592
